# Experimental data taken from patent publication US20240058288A1, “DRUG COCKTAIL FOR TREATMENT OF PARKINSON'S DISEASE, LEWY BODY DISEASE AND MULTIPLE SYSTEM ATROPHY” (ALETA NEUROSCIENCE, LLC, priority 2021, published 2024).
# Like-named read-outs stand apart in the source and are kept apart here.
# Key:
# Format in all cases: cell-based
# [1] = test system: human dopaminergic neurons (iCell DopaNeurons); assay: MPP+-induced neurotoxicity: cytolysis of iCell DopaNeurons
# From the text: (§1) We conducted an in vitro study of the drugs in Table 1 to evaluate the neuroprotective effects of 44 conditions of treatment (Table 2, experiments 1-41; 51-53) against MPP+-induced neurodegeneration toxicity on human dopaminergic neurons (iCell® DopaNeurons: iPS cell-derived human midbrain floorplate dopaminergic neurons). Further combinations (Table 2, experiments 42-50 and Table 3) are also disclosed.
# (§2) Three different measurements were made in the experiments. 1. Neurite length in mm is a measure of increase in dendrite length of neurons. […] 2. neurite branching is measure of dendrite branching. […] 3. Cytolysis of the cells is a measure of cell death. […] Experimental conditions were measured relative to the results of healthy cells in the studies.
# (§3) Procedure. iCell DOPA neurons were thawed and cultured following the provider's instructions in Brainphys medium+provided supplements+1% N2 supplement (Stemcell Technologies)+penicillin/streptomycin+Laminin. They were plated at 20000 cells per well of a 384 well plate (pre-coated with poly-D-lysine and Laminin) in 70 μL of growth medium. Cells were incubated at 37° C./5% CO2 in a humidified cell culture incubator. Half of the culture medium was changed twice a week.
# (§4) MPP+-induced neurotoxicity: 24 hours after neuronal plating, half of the medium was removed and the test compounds were applied with MPP+ treatment, both concentrated at 4×, were added to the wells. For each condition, six aliquots were added, corresponding to columns A-F in Table 2. Except for the NT/NT row, in each row, either the compound indicated dissolved in its vehicle noted in Table 1 was added, or only a vehicle was added as indicated. Column F is an indicator of whether MPP+ was added. If not, only the medium was added.
# (§5) For the evaluation of conditions 1-28, Neurite outgrowth was followed for subsequent 48 hours using an Incucyte Zoom platform with one phase contrast image every 4 hours, using a 20× objective. After 48 hours, the medium containing test compounds and MPP+ was removed and replaced by fresh medium containing a fluorescent cytolysis marker (red fluorescence) and a live cell marker (green fluorescence). For the evaluation of conditions 29-53, Neurite outgrowth was followed similarly for subsequent 72 hours after MPP+ was added.
# Data was normalized to control conditions as there is basal cytolysis in the cell culture after thawing.
# Fluorescently immuno-stained cells were imaged on a high content imaging platform. Individual segmentation of cells was performed by image analysis of the MAP2 and NeuN staining. The number of neurons and the neurite length were measured. The percentage of cytolyzed cells was also calculated.
# (§6) Statistical analysis. We used one-way ANOVA followed by Bonferroni's multiple comparisons test.
# [2] = test system: human dopaminergic neurons (iCell DopaNeurons); assay: MPP+-induced neurotoxicity: neurite outgrowth (neurite length, branch points) of iCell DopaNeurons, Incucyte; conditions: for effects on neurite outgrowth: vs MPP+ alone
# From the text: as §1
# iCell DOPA neurons are neural floor plate-derived midbrain dopaminergic neurons generated from human induced pluripotent stem cells (iPSCs). Dopaminergic neurons, specifically those located in the floor plate-derived midbrain are implicated in neurological disorders such as Parkinson's disease, MSA and DLBD among others. Thus iCell DopaNeurons provide a highly relevant in vitro model to investigate these types of pathologies (42, 43). The iCellDopa neurons were supplied from FUJIFILM Cellular Dynamics.
# as §2, §3, §4, §5
# Each condition 1-41 and 51-53 was repeated in 8 wells of a 384 well plate, that is, each test condition studied in Table 2 was repeated eight times. NT/NT were cells in the standard medium only. Control/NT are the cells in the vehicle (as described above), with and without MPP+.
# Assay endpoints and data analysis. Phase contrast images were analyzed at each time point to determine the neurite length and number of branch points per mm^2. Kinetic data was plotted and kinetics were normalized by subtracting the value of the first data point (at time of treatment), allowing to measure changes in neurite outgrowth only from the onset of the treatment, starting at zero. Area Under Curve (AUC) of kinetic data was obtained and used for plotting compound's effects and perform statistical analyzes.
# as §6
# TNF-α = assay: LPS/ATP-induced TNF-α secretion by human microglia cells (Luminex); conditions: as compared with […] distilled water in presence of LPS and ATP
# From the text: (§7) In addition to the studies discussed above assessing activity of combinations of drugs on MPP+-induced neurodegeneration toxicity on human dopaminergic neurons and measuring neuronal growth and neurite branching, we also assessed combinations of drugs in reducing lipopolysaccharide (LPS, from E. coli)-induced neuroinflammation.
# (§8) Lipopolysaccharides are important outer membrane components of gram-negative bacteria such as E. coli and salmonella. They are large amphipathic glycoconjugates that typically consist of a lipid domain (hydrophobic) attached to a core oligosaccharide and a distal polysaccharide. LPS binds to Toll-like receptor 4 (TLR4) and activates microglia (51) which in turn increases secretion of pro-inflammatory cytokines such as interleukin-6 (IL-6), tumor necrosis factor-α (TNF-α), and CXCL1/GROα.
# (§9) Microglia cells were obtained from an iCell® Microglia kit, 01279 (Catalogue N° R1131) from FUJIFILM Cellular Dynamics. We followed the manufacturer's protocol for activation of the microglial cells with LPS/ATP to subsequently measure the effect of the study drugs on pro-inflammatory cytokines IL-6, TNF-α and CXCL1/GROα.
# (§10) All cell culture procedures were performed in aseptic conditions, under a laminar flow hood. Microglia were thawed and cultured following the provider's instructions. The microglia were plated at 50,000 cells per well of a Corning Primaria 96 well plate (Ref N° 353872) in 100 μL of growth medium. Cells were incubated at 37° C./5% CO2 in a humidified cell culture incubator.
# (§11) Three days after cell plating, the test or reference substances (25 μL of solutions at 5×) were applied 1 hour before LPS and ATP stimulation.
# (§12) One hour later, 12.5 μL of test or reference substances were added again at 2× concentrated followed by 12.5 μL of LPS at 12× concentration. Fifty microliters of ATP were introduced at 4× concentration, 5 h 30 min after incubation with LPS.
# (§13) Six hours after LPS incubation, the supernatant of each well was collected and centrifugated at 1000 g for 10 minutes to remove the cells and debris.
# (§14) Fifty microliters of supernatant from NT and LPS+ATP-treated wells were used to determine cytokine secretion (IL-6, TNF-α, CXCL1/GROα) by Luminex platform according to the provider's instructions. Samples were diluted prior to the assay to fit within the standard range if needed. Three wells were tested per each condition (Table 10). Cytokines levels in the supernatant were expressed in pg/mL. The data was analyzed using a One-Way ANOVA followed by Bonferroni test.
# IL-6 = assay: LPS/ATP-induced IL-6 secretion by human microglia cells (Luminex); conditions: as compared with […] distilled water in presence of LPS and ATP
# From the text: as §7, §8, §9, §10, §11, §12, §13, §14
# IL-1β = assay: LPS/ATP-induced IL-1β in human microglia cells; conditions: as compared with […] distilled water in presence of LPS and ATP
compound,measurement,setting,value
"COc1cc2nc(N3CCN(C(=O)C4CCCO4)CC3)nc(N)c2cc1OC (stereo not drawn) [TZ, Terazosin]","Cytolysis, %, Plate 1, Mean ± S.D.","[1]; MPP+ 100 μM, Table 8.1 (FIG. 6C), PCI 30 μM",72.78 ± 2.29%
same,"Neurite length data, plate 1, Mean","[2]; MPP+ 100 μM, Table 6.1 (FIG. 6A), followed 72 hours, PCI 30 μM",1102.2 mm/mm^2
same,"Neurite Branching Data, Plate 1, Mean ± S.D.","[2]; MPP+ 100 μM, Table 7.1 (FIG. 6B), followed 72 hours, PCI 30 μM",31244.4 ± 12478.9 per mm^2
same,effects on neurite outgrowth,[2]; MPP+ 100 μM,no significant effects
"Nc1c(Br)cc(Br)cc1CN[C@H]1CC[C@H](O)CC1 [AMB, Ambroxol]","Cytolysis, %, Plate 2, Mean ± S.D.","[1]; MPP+ 100 μM, Table 8.2 (FIG. 7C), PCI 30 μM",73.29 ± 2.23%
same,"Neurite Length Data, Mean ± S.D.","[2]; MPP+ 100 μM, Table 5.1 (FIG. 5A), conditions 17-28, AUC of kinetic data",763.9 ± 209.8 mm/mm^2
same,"Neurite Branching Data, Mean ± S.D.","[2]; MPP+ 100 μM, Table 5.2 (FIG. 5B), conditions 17-28, AUC of kinetic data",20281.6 ± 8723.4 per mm^2
same,"Neurite length, plate 2, Mean ± S.D.","[2]; MPP+ 100 μM, Table 6.2 (FIG. 7A), followed 72 hours, PCI 30 μM",1332.1 ± 174.8 mm/mm^2
same,effects on neurite outgrowth,[2]; MPP+ 100 μM,no significant effects
CC(C)(O)c1coc(S(=O)(=O)NC(=O)Nc2c3c(cc4c2CCC4)CCC3)c1 [MCC950],concentration of TNF-α,TNF-α,significantly decreased
same,concentration of IL-6,IL-6,significantly decreased
same,concentration of IL-1β,IL-1β,significantly decreased
"CC(C)[C@H](NC(=O)c1ccc2ccccc2n1)C(=O)N[C@@H](CC(=O)O)C(=O)COc1c(F)cccc1F [PCI/MPP+, Q-VD-OPh]","Cytolysis, %, Plate 1, Mean ± S.D.",[1],65.56 ± 1.89%
same,"Cytolysis, %, Plate 2, Mean ± S.D.",[1],67.93 ± 3.52%
same,"Neurite Branching Data, Plate 1, Mean ± S.D.",[2],38456.3 ± 11570.7 per mm^2
same,"Neurite Branching Data, Plate 2, Mean ± S.D.",[2],52610.1 ± 16660.1 per mm^2
same,"Neurite length data, plate 1, Mean",[2],1301.0 mm/mm^2
same,"Neurite length, plate 2, Mean ± S.D.",[2],1430.1 ± 321.7 mm/mm^2
